Experimental data: ChEMBL document CHEMBL6092217 (Eur J Med Chem, 2024)
Active and inactive are the calls of the source. The rule behind the calls is not given here.

Columns and labels:
[1] = test system: HT-29; test: Antiproliferative activity against human HT-29 cells assessed as cell viability incubated for 72 hrs by MTT assay; type: functional, cell-based; details: HT-29, 72 h
[2] = Resistance index, ratio of IC50 for human A549/TxR cells to IC50 for human A549 cells; type: functional
[3] = molecular target: T1, Tubulin (Homo sapiens) (UniProt P68371+Q9H4B7+P0DPH7+P68366+Q13509+Q71U36+P04350+Q3ZCM7+P07437+P68363+Q9BQE3+Q6PEY2+Q13885+Q9BVA1+Q9BUF5); test: Disruption of microtubule network in human HT-29 cells incubated for 8 hrs by DAPI staining based confocal microscopic analysis; type: cell-based; details: dose 50-200 nM
[4] = molecular target: T1, Tubulin (Homo sapiens); test: Inhibition of tubulin polymerization in human HT-29 cells assessed as reduction in beta-tubulin expression 50 to 200 nM incubated for 24 hrs by Western blot analysis; type: cell-based; details: dose 50-200 nM
[5] = molecular target: T1, Tubulin (Homo sapiens); test: Inhibition of tubulin polymerization in human HT-29 cells assessed as downregulation of acetylated alpha-tubulin expression 50 to 200 nM incubated for 24 hrs by Western blot analysis; type: cell-based; details: dose 50-200 nM
[6] = molecular target: T1, Tubulin (Homo sapiens); test: Inhibition of tubulin polymerization in human HT-29 cells assessed as upregulation of DeY- alpha-tubulin expression 50 to 200 nM incubated for 24 hrs by Western blot analysis; type: cell-based; details: dose 50-200 nM
[7] = test system: HT-29; test: Induction of cell cycle arrest in human HT-29 cells assessed as accumulation of cells at G1 phase at 200 nM incubated for 24 hrs by flow cytometry analysis (reference value: 67.6%); type: functional
[8] = test system: HT-29; test: Induction of cell cycle arrest in human HT-29 cells assessed as accumulation of cells at S phase at 50 nM incubated for 24 hrs by flow cytometry analysis (reference value: 20.8 %); type: functional
[9] = test system: HT-29; test: Induction of cell cycle arrest in human HT-29 cells assessed as accumulation of cells at S phase at 100 nM incubated for 24 hrs by flow cytometry analysis (reference value: 20.8 %); type: functional
[10] = test system: HT-29; test: Induction of cell cycle arrest in human HT-29 cells assessed as accumulation of cells at S phase at 200 nM incubated for 24 hrs by flow cytometry analysis (reference value: 20.8 %); type: functional
[11] = test system: HT-29; test: Induction of cell cycle arrest in human HT-29 cells assessed as accumulation of cells at G2 phase at 50 nM incubated for 24 hrs by flow cytometry analysis (reference value: 13 %); type: functional
[12] = test system: HT-29; test: Induction of cell cycle arrest in human HT-29 cells assessed as accumulation of cells at G2 phase at 200 nM incubated for 24 hrs by flow cytometry analysis (reference value: 13 %); type: functional
[13] = test system: HT-29; test: Induction of cell cycle arrest in human HT-29 cells assessed as reduction in p-CDC2 expression incubated for 24 hrs by Western blot analysis; type: functional, cell-based; details: dose 50-200 nM
[14] = test system: HT-29; test: Induction of apoptosis in human HT-29 cells assessed as early apoptotic cells at 100 nM incubated for 24 hrs by FITC/PI staining based flow cytometry analysis (reference value: 8.14%); type: functional
[15] = test system: HT-29; test: Induction of apoptosis in human HT-29 cells assessed as necrotic cells at 100 nM incubated for 24 hrs by FITC/PI staining based flow cytometry analysis (reference value: 0.017 %); type: functional
[16] = test system: HT-29; test: Induction of apoptosis in human HT-29 cells assessed as viable cells at 200 nM incubated for 24 hrs by FITC/PI staining based flow cytometry analysis (reference value: 91.6%); type: functional; details: read-out: Activity
[17] = test system: HT-29; test: Induction of apoptosis in human HT-29 cells assessed as early apoptotic cells at 200 nM incubated for 24 hrs by FITC/PI staining based flow cytometry analysis (reference value: 8.14%); type: functional
[18] = test system: HT-29; test: Induction of apoptosis in human HT-29 cells assessed as late apoptotic cells at 200 nM incubated for 24 hrs by FITC/PI staining based flow cytometry analysis (reference value: 0.20%); type: functional
[19] = test system: HT-29; test: Induction of apoptosis in human HT-29 cells assessed as upregulation of cleaved caspase 3 level at 50 to 200 nM incubated for 24 hrs by Western blot analysis; type: functional, cell-based; details: dose 50-200 nM
[20] = test system: Mitochondrial membrane; test: Induction of mitochondrial membrane potential loss in human HT-29 cells assessed as decrease in red fluorescence at 50 to 100 nM incubated for 24 hrs by JC-1 staining based confocal microscopic analysis; type: cell membranes; details: dose 50-100 nM
[21] = test system: Mitochondrial membrane; test: Induction of mitochondrial membrane potential loss in human HT-29 cells incubated for 24 hrs by JC-1 staining based confocal microscopic analysis; type: cell membranes; details: dose 50-100 nM
[22] = test system: HT-29; test: Induction of ROS accumulation in human HT-29 cells incubated for 24 hrs by DCFH-DA staining based microscopic analysis; type: functional, cell-based; details: dose 50-100 nM
[23] = test system: HT-29; test: Antitumor activity against human HT-29 cells xenografted in BALB/c mouse assessed as tumor growth inhibition at 20 mg/kg, iv measured after 21 days; type: functional; details: HT-29, 504 h, time 21 day, read-out: TGI
[24] = test system: HT-29; test: Antitumor activity against human HT-29 cells xenografted in BALB/c mouse assessed as tumor growth inhibition at 40 mg/kg, iv measured after 21 days; type: functional; details: HT-29, 504 h, time 21 day, read-out: TGI
[25] = test system: HT-29; test: Antitumor activity against human HT-29 cells xenografted in BALB/c mouse assessed as reduction in CD31 expression at 10 to 40 mg/kg, iv measured after 21 days by immunohistochemical analysis; type: functional, organism-based; details: dose 10-40 mg/kg, time 21.0 day
[26] = Toxicity in BALB/c mouse assessed as heart damage at 10 to 40 mg/kg, iv measured after 21 days by H and E staining based analysis; type: organism-based; details: in vivo, 504 h, dose 10-40 mg/kg, time 21 day
[27] = Toxicity in BALB/c mouse assessed as liver damage at 10 to 40 mg/kg, iv measured after 21 days by H and E staining based analysis; type: organism-based; details: in vivo, 504 h, dose 10-40 mg/kg, time 21 day
[28] = Toxicity in BALB/c mouse assessed as spleen damage at 10 to 40 mg/kg, iv measured after 21 days by H and E staining based analysis; type: organism-based; details: in vivo, 504 h, dose 10-40 mg/kg, time 21 day
[29] = Toxicity in ICR mouse assessed as effect on BUN level at 10 to 40 mg/kg, iv administered every 2 days and measured after 14 days; type: organism-based; details: in vivo, 336 h, dose 10-40 mg/kg, time 14 day
[30] = Toxicity in ICR mouse assessed as effect on LDH level at 10 to 40 mg/kg, iv administered every 2 days and measured after 14 days; type: organism-based; details: in vivo, 336 h, dose 10-40 mg/kg, time 14 day
[31] = Toxicity in ICR mouse assessed as effect on granulocytes count at 10 to 40 mg/kg, iv administered every 2 days and measured after 14 days; type: organism-based; details: in vivo, 336 h, dose 10-40 mg/kg, time 14 day
[32] = Toxicity in ICR mouse assessed as effect on WBC count at 10 to 40 mg/kg, iv administered every 2 days and measured after 14 days; type: organism-based; details: in vivo, 336 h, dose 10-40 mg/kg, time 14 day
[33] = Half life in Sprague-Dawley rat at 5 mg/kg, iv measured upto 24 hrs by HPLC-MS analysis; type: ADME, organism-based; details: in vivo
[34] = Volume of distribution at steady state in Sprague-Dawley rat at 5 mg/kg, iv measured upto 24 hrs by HPLC-MS analysis; type: ADME, organism-based; details: in vivo, read-out: Vdss
[35] = AUC (0 to t) in Sprague-Dawley rat at 5 mg/kg, iv measured upto 24 hrs by HPLC-MS analysis; type: ADME, organism-based; details: in vivo
[36] = test system: MDA-MB-231; test: cells; details: Homo sapiens, MDA-MB-231, 72 h
Description: Antiproliferative activity against human MDA-MB-231 cells assessed as cell viability incubated for 72 hrs by MTT assay

- IC50 [1]: 51 nM
- Activity [3]: Dose-dependent-effect
- inhibition [4]: Active
- inhibition [5]: Active
- inhibition [6]: Active
- Activity [20]: Active
- Activity [21]: Dose-dependent-effect
- half-life [33]: 30.6 min
- Vd [34]: 1.03 L/kg
- AUC(0-t) at 24 h [35]: 3820 ng·h/mL
- IC50 [36]: 440 nM
SMILES: COc1ccc(N(C)c2nc(/C=C/c3cccc(OC)c3)nc3ccccc23)cc1
- Ratio IC50 [2]: 2.53
- Activity [7]: 23.5%
- Activity [8]: 16.5%
- Activity [9]: 24.9%
- Activity [10]: 7.31%
- Activity [11]: 17.8%
- Activity [12]: 69.8%
- Activity [13]: Dose-dependent-effect
- Activity [14]: 2.87%
- Activity [15]: 2.72%
- viability at 0.2 µM [16]: 43.2%
- Activity [17]: 18.2%
- Activity [18]: 37.3%
- Activity [19]: Active
- Activity [22]: Dose-dependent-effect
- inhibition in vivo at 20 mg/kg [23]: 64.7%
- inhibition in vivo at 40 mg/kg [24]: 74.2%
- Activity [25]: Active
- Activity [26]: Non-toxic
- Activity [27]: Non-toxic
- Activity [28]: Non-toxic
- Activity [29]: Non-toxic
- Activity [30]: Non-toxic
- Activity [31]: Non-toxic
- Activity [32]: Non-toxic
